Laboratory results: US20260265248A1, “NOVEL PD-L1 INHIBITORS” (AFFIRMA BIOTECH S. L., priority 2023, published 2026)

target: T1, PD-1/PD-L1 (Homo sapiens, UniProt Q9NZQ7); assay: PD1-PDL1 HTRF assay; conditions: PD-1/PD-L1 homogenous time-resolved fluorescence (HTRF) binding assay; Tag1-PDL1 5 nM, Tag2-PD1 50 nM
T1 construct: purchased CisBio
Text: The CisBio HTRF assay kit, purchased from CisBio only, was employed to determine the IC50 values of compounds. The PD1-PDL1 HTRF assay measures the interactions between the two proteins, PD1 and PDL1. The interaction is detected by using anti-Tag1 labeled with Europium (HTRF donor) which binds to PDL1 and anti-Tag2 labeled with XL665 (HTRF acceptor) which binds to PD1. When the two antibodies are in proximity, the excitation of the donor fluorophore results in FRET emission from the acceptor fluorophore. The presence of inhibitors for such an interaction result in reduction of HTRF signal.
The assay was conducted in 96-well white assay plates. All the reagents, including Tag1-PDL1, Tag2-PD1, Anti-Tag1-PDL1, Anti-Tag2-PD1 were thawed and diluted with PPI Europium Detection buffer to achieve the desired concentration as per the manufacturer's protocol. A 1000 μM stock solution of test inhibitors was prepared in DMSO. The stock solution was diluted in DMSO to prepare 8 concentrations (1000-0.001 μM). These stock solutions were further diluted in PPI Europium detection buffer to prepare 8 working stock solutions (100-0.0001 μM). To the 96-well plate, 2 μL of the test inhibitor working stock solutions were added followed by 4 μL of Tag1-PDL1 (5 nM) and 4 μL of Tag2-PD1 (50 nM). The plate was incubated at room temperature for 15 min. Subsequently, 10 μL of pre-mixed Anti-Tag1-PDL1 and Anti-Tag2-PD1 solution was added. The plate was sealed and incubated at room temperature for 1 h. The HTRF signal was read on Perkin Elmer Envision plate reader using excitation wavelength of 320 nm, emission wavelengths of 620 nm and 665 nm. Results were obtained by calculating the ratio of signal from acceptor at 665 nm to that of signal from donor at 620 nm multiplied by […]. The IC50 values were determined by the Hill equation using GraphPad Prism software.

T1 sequence (Q9NZQ7 19-238 limits assumed): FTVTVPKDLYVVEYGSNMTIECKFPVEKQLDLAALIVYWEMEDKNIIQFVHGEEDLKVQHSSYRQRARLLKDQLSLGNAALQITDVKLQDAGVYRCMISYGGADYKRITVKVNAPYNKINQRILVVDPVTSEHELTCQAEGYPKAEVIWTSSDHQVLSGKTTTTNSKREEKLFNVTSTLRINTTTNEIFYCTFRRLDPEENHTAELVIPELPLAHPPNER

Row | IC50 [µM] | Compound
1 | ≤ 0.01 | Cc1c(NC(=O)c2ccc(CNCCO)cn2)cccc1-c1cccc(-c2ccn3c(-c4ccc(CN5CCC[C@H]5C(=O)O)cc4)nnc3c2)c1C [Example 69, (4-(7-(31-(5-(((2-hydroxyethyl)amino)methyl)picolinamido)-2,2′-dimethyl-[1,1′-biphenyl]-3-yl)-[1,2,4]triazolo [4,3-α]pyridin-3-yl)benzyl)-L-proline]
2 | ≤ 0.01 | Cc1c(NC(=O)c2ccc(CNCCO)cn2)cccc1-c1cccc(-c2ccn3c(-c4ccc(CNCCO)cc4)nnc3c2)c1C [Example 70, 5-(((2-hydroxyethyl)amino)methyl)-N-(3′-(3-(4-(((2-hydroxyethyl)amino)methyl)phenyl)-[1,2,4]triazolo[4,3-a]pyridin-7-yl)-2,2′-dimethyl-[1,1′-biphenyl]-3-yl)picolinamide]
3 | 0.01 to 0.1 | Cc1c(NC(=O)c2ccc(CNC[C@H]3CCC(=O)N3)cn2)cccc1-c1cccc(-c2ccn3c(-c4ccc(CNC[C@H]5CCC(=O)N5)cc4)nnc3c2)c1C [Example 71, N-(2,2′-dimethyl-31-(3-(4-(((((R)-5-oxopyrrolidin-2-yl)methyl)amino)methyl)phenyl)-[1,2,4]triazolo[4,3-α]pyridin-7-yl)-[1,1′-biphenyl]-3-yl)-5-(((((R)-5-oxopyrrolidin-2-yl)methyl)amino)methyl)picolinamide]
4 | ≤ 0.01 | COCCNCc1ccc(-c2nnc3cc(-c4cccc(-c5cccc(NC(=O)c6ccc(CNCCO)cn6)c5C)c4C)ccn23)cc1 [Example 72, 5-(((2-hydroxyethyl)amino)methyl)-N-(3′-(3-(4-(((2-methoxyethyl)amino)methyl)phenyl)-[1,2,4]triazolo[4,3-α]pyridin-7-yl)-2,2′-dimethyl-[1,1′-biphenyl]-3-yl)picolinamide]
5 | 0.01 to 0.1 | Cc1c(-c2ccn3c(-c4ccc(CN5CCC[C@@H]5C(=O)O)cc4)nnc3c2)cccc1-c1cccc(-c2ccn3c(-c4ccc(CN5CCC[C@@H]5C(=O)O)cc4)nnc3c2)c1C [Example 73, (2′R)-((((2,2′-dimethyl-[1,1′-biphenyl]-3,3′-diyl)bis ([1,2,4]triazolo[4,3-ci]pyridine-7,3-diyl))bis(4,1-phenylene))bis(methylene))di-D-proline]
6 | 0.01 to 0.1 | Cc1c(-c2ccc(CNC[C@@H]3CCC(=O)N3)cc2)cccc1-c1cccc(-c2ccn3c(-c4ccc(CNC[C@@H]5CCC(=O)N5)cc4)nnc3c2)c1C [Example 74, (S)-5-((((2′,2″-dimethyl-3″-(3-(4-(((((S)-5-oxopyrrolidin-2-yl)methyl)amino)methyl)phenyl)-[1,2,4]triazolo[4,3-a]pyridin-7-yl)-[1,1′:3′,1″-terphenyl]-4-yl)methyl)amino)methyl)pyrrolidin-2-one]
7 | 0.01 to 0.1 | Cc1c(-c2ccc(CNCCO)cc2)cccc1-c1cccc(-c2ccn3c(-c4ccc(CNCCO)cc4)nnc3c2)c1C [Example 75, 2-((4-(7-(4″-(((2-hydroxyethyl)amino)methyl)-2,2′-dimethyl-[1,1′:3′,1″-terphenyl]-3-yl)-[1,2,4]triazolo[4,3-α]pyridin-3-yl)benzyl)amino)ethan-1-ol]
8 | 0.01 to 0.1 | Cc1c(-c2ccc(CNC[C@H]3CCC(=O)N3)cc2)cccc1-c1cccc(-c2ccn3c(-c4ccc(CNC[C@H]5CCC(=O)N5)cc4)nnc3c2)c1C [Example 76, (R)-5-((((2′,2″-dimethyl-3″-(3-(4-(((((R)-5-oxopyrrolidin-2-yl)methyl)amino)methyl)phenyl)-[1,2,4]triazolo[4,3-α]pyridin-7-yl)-[1,1′:3′,1″-terphenyl]-4-yl)methyl)amino)methyl)pyrrolidin-2-one]
9 | ≤ 0.01 | COc1nc(-c2cccc(-c3cccc(-c4ccn5c(-c6ccc(CNCCO)cc6)nnc5c4)c3C)c2C)ccc1CNCCO [Example 77, 2-((4-(7-(3′-(5-(((2-hydroxyethyl)amino)methyl)-6-methoxypyridin-2-yl)-2,2′-dimethyl-[1,1′-biphenyl]-3-yl)-[1,2,4]triazolo[4,3-ai]pyridin-3-yl)benzyl)amino)ethan-1-ol]
10 | ≤ 0.01 | COc1cc(-c2cccc(-c3cccc(-c4ccn5c(-c6ccc(CNCCO)cc6)nnc5c4)c3C)c2C)ccc1CNCCO [Example 78, 2-((4-(7-(4″-(((2-hydroxyethyl)amino)methyl)-3″-methoxy-2,2′-dimethyl-[1,1′:3′,1″-terphenyl]-3-yl)-[1,2,4]triazolo[4,3-α]pyridin-3-yl)benzyl)amino)ethan-1-ol]

The next lines start with the compound.

Row | Compound | IC50 [µM]
11 | Cc1c(-c2ccc3c(c2)OCCO3)cccc1-c1ccn2c(-c3ccc(CNCCC(=O)O)cc3)nnc2c1 [Example 61, 3-((4-(7-(3-(2,3-dihydrobenzo[b][1,4]dioxin-6-yl)-2-methylphenyl)-[1,2,4]triazolo[4,3-a]pyridin-3-yl)benzyl)amino)propanoic acid] | 0.1 to 1
12 | Cc1c(-c2ccc(CNCCO)cc2)cccc1-c1cccc(-c2ccn3c(-c4ccc(CN5CCC[C@@H]5C(=O)O)cc4)nnc3c2)c1C [Example 62, (4-(7-(4″-(((2-hydroxyethyl)amino)methyl)-2,2′-dimethyl-[1,1′:3′,1″-terphenyl]-3-yl)-[1,2,4]triazolo[4,3-a]pyridin-3-yl)benzyl)-D-proline] | ≤ 0.01
13 | Cc1c(-c2ccn3c(-c4ccc(CN5CCC[C@@H]5C(=O)O)cc4)nnc3c2)cccc1-c1cccc(-c2cnc(CNCCO)cn2)c1C [Example 63, (4-(7-(3′-(5-(((2-hydroxyethyl)amino)methyl)pyrazin-2-yl)-2,2′-dimethyl-[1,1′-biphenyl]-3-yl)-[1,2,4]triazolo [4,3-α]pyridin-3-yl)benzyl)-D-proline] | 0.01 to 0.1
14 | Cc1c(-c2ccc(CNCCO)cc2)cccc1-c1cccc(-c2ccn3c(-c4ccc(CN5CCC[C@H]5C(=O)O)cc4)nnc3c2)c1C [Example 64, (4-(7-(4″-(((2-hydroxyethyl)amino)methyl)-2,2′-dimethyl-[1,1′:3′,1″-terphenyl]-3-yl)-[1,2,4]triazolo[4,3-α]pyridin-3-yl)benzyl)-L-proline] | ≤ 0.01
15 | Cc1c(-c2ccc(CNCCO)cc2)cccc1-c1cccc(-c2ccn3c(-c4ccc(CN5CC[C@@H](C(=O)O)C5)cc4)nnc3c2)c1C [Example 65, (R)-1-(4-(7-(4″-(((2-hydroxyethyl)amino)methyl)-2,2′-dimethyl-[1,1′:3′,1″-terphenyl]-3-yl)-[1,2,4]triazolo[4,3-α]pyridin-3-yl)benzyl)pyrrolidine-3-carboxylic acid] | 0.01 to 0.1
16 | OCCNCc1ccc(-c2cccc(-c3cccc(-c4ccn5c(-c6ccc(CNCCO)cc6)nnc5c4)c3Cl)c2Cl)cc1 [Example 66, 2-(((2′,2″-dichloro-3″-(3-(4-(((2-hydroxyethyl)amino)methyl)phenyl)-[1,2,4]triazolo[4,3-a]pyridin-7-yl)-[1,1′:3′,1″-terphenyl]-4-yl)methyl)amino)ethan-1-ol] | 0.01 to 0.1
17 | O=C(O)[C@H]1CCCN1Cc1ccc(-c2nnc3cc(-c4cccc(-c5cccc(-c6ccc(CNCCO)cc6)c5Cl)c4Cl)ccn23)cc1 [Example 67, (4-(7-(2,2′-dichloro-4″-(((2-hydroxyethyl)amino)methyl)-[1,1′:3′,1″-terphenyl]-3-yl)-[1,2,4]triazolo[4,3-a]pyridin-3-yl)benzyl)-D-proline] | ≤ 0.01
18 | Cc1c(NC(=O)c2ccc(CNCCO)cn2)cccc1-c1cccc(-c2ccn3c(-c4ccc(CN5CCC[C@@H]5C(=O)O)cc4)nnc3c2)c1C [Example 68, (4-(7-(3′-(5-(((2-hydroxyethyl)amino)methyl)picolinamido)-2,2′-dimethyl-[1,1′-biphenyl]-3-yl)-[1,2,4]triazolo[4,3-a]pyridin-3-yl)benzyl)-D-proline] | ≤ 0.01
